Patent US12187742B2 (XRAD Therapeutics, Inc., priority 2018, dated 2025)
pIC50: −log10 of the molar value. Where a name gives a salt, the structure may show the parent alone.

Biological target: ATM (Homo sapiens (Human), UniProt Q13315)
Assay: ATM in Cell Western Assay (pKAP1 in etoposide-treated MCF-7 cells)
Type: cell-based
Details: MCF-7 cells, etoposide 100 μM, 1 hr, pKAP1 readout
In short: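 Cells received compounds in a 10-dose, 3-fold series from a 1 μM final top concentration, then 100 μM etoposide, for 1 hr at 37° C. They were then fixed with paraformaldehyde and permeabilized with 0.1% Triton X-100. After immunostaining, plates were scanned on an infrared imager.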

Chain of ATM (Q13315 whole entry): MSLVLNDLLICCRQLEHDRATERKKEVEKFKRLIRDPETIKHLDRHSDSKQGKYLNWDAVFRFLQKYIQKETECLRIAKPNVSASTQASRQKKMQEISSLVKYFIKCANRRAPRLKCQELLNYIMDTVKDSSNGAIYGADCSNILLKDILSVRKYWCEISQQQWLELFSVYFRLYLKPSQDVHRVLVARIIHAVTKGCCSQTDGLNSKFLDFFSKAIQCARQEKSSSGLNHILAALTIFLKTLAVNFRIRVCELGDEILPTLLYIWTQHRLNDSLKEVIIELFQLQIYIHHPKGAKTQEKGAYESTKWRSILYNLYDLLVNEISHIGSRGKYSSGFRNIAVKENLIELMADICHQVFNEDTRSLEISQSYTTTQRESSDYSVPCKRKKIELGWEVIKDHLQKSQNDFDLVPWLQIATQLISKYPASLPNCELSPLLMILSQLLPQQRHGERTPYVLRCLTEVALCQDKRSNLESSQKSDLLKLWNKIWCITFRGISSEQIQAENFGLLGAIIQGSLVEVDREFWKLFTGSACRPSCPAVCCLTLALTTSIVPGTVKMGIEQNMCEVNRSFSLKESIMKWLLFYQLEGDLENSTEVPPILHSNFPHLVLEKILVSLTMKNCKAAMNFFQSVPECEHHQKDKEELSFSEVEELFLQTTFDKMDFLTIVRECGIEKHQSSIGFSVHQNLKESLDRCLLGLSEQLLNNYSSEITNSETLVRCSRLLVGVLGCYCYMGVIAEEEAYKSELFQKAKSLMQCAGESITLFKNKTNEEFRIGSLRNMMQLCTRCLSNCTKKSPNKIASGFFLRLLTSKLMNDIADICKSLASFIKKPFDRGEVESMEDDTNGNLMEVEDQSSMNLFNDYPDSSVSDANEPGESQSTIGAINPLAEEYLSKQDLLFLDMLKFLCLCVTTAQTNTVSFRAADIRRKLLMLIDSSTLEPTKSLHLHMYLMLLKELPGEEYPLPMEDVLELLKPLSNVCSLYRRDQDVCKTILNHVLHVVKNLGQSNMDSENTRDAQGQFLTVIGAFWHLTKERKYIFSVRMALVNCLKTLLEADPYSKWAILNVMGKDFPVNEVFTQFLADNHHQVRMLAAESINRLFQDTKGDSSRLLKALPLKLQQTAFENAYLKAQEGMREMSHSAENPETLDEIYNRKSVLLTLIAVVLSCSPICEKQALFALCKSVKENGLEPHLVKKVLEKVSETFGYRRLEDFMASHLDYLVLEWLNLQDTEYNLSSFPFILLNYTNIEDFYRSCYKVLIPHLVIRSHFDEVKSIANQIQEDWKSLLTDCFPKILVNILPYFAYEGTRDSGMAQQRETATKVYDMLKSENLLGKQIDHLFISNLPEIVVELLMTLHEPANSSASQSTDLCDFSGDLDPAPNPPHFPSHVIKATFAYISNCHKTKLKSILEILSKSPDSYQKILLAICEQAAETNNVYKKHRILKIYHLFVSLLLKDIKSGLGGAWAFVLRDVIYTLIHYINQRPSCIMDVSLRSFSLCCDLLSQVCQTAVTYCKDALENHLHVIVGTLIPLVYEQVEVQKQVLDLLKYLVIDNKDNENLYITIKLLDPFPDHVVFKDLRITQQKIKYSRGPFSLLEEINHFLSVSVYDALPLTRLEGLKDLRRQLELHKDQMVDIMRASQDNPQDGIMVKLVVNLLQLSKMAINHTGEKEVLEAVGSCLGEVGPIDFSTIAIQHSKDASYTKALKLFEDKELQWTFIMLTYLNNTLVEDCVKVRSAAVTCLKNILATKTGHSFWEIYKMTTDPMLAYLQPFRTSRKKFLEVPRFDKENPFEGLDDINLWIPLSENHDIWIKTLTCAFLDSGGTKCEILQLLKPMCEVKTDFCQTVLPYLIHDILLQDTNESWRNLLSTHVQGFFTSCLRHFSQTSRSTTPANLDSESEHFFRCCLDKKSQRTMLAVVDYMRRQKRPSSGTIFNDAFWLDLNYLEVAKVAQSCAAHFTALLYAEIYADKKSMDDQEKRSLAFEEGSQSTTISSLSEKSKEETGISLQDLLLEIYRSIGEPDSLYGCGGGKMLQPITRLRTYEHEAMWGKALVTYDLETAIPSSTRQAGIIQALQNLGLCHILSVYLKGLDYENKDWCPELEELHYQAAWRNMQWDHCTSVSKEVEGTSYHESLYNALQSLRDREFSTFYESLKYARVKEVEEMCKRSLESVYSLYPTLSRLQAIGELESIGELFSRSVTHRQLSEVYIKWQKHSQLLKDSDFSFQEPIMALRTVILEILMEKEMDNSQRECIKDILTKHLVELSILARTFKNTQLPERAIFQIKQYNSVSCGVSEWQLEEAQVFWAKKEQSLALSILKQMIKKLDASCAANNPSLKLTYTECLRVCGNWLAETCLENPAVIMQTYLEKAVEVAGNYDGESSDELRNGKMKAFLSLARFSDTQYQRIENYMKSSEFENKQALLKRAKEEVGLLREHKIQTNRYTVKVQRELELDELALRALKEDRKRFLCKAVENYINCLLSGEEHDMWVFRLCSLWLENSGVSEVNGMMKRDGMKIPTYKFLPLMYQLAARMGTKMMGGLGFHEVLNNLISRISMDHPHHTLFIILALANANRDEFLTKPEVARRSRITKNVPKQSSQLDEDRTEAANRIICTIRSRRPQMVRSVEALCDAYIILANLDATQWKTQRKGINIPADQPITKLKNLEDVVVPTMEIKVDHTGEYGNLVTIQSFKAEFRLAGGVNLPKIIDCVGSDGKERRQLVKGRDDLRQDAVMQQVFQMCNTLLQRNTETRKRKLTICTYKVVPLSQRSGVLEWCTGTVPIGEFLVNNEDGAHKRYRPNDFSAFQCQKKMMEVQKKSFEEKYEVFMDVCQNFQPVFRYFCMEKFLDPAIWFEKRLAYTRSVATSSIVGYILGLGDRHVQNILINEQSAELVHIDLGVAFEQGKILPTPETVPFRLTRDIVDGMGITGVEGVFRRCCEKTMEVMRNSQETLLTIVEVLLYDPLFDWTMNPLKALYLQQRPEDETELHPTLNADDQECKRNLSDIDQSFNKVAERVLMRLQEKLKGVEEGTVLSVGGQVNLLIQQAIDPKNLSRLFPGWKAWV

| pIC50 | Compound |
| --- | --- |
| 7.00 to 9.00 | CN(C)CCCNc1ncc(-c2ccc3ncc4c(c3c2)C2(CCC2)C(=O)N4C)cc1NS(C)(=O)=O [Example 259, N-(2-((3-(Dimethylamino)propyl)amino)-5-(3′-methyl-2′-oxo-2′,3′-dihydrospiro[cyclobutane-1,1′-pyrrolo[2,3-c]quinolin]-8′-yl)pyridin-3-yl)methanesulfonamide] |
| < 7.00 | CC1CCN(c2ncc(-c3ccc4ncc5c(c4c3)C3(CCC3)C(=O)N5C)cc2NS(C)(=O)=O)CC1 [Example 260, N-(5-(3′-Methyl-2′-oxo-2′,3′-dihydrospiro[cyclobutane-1,1′-pyrrolo[2,3-c]quinolin]-8′-yl)-2-(4-methylpiperidin-l-yl)Pyridin-3-yl)methanesulfonamide] |
| 7.00 to 9.00 | CN(C)CCCOc1ncc(-c2ccc3ncc4c(c3c2)C2(CCC2)C(=O)N4C)cc1NS(=O)(=O)CCN1C(=O)c2ccccc2C1=O [Example 261, N-(2-(3-(dimethylamino)propoxy)-5-(3′-methyl-2′-oxo-2′,3′-dihydrospiro[cyclobutane-1,1′-pyrrolo[2,3-c]quinolin]-8′-yl)pyridin-3-yl)-2-(1,3-dioxoisoindolin-2-yl)ethane-1-sulfonamide] |
| 7.00 to 9.00 | CN(C)CCCOc1ncc(-c2ccc3ncc4c(c3c2)C2(CCC2)C(=O)N4C)nc1NS(C)(=O)=O [Example 263, N-(3-(3-(Dimethylamino)propoxy)-6-(3′-methyl-2′-oxo-2′,3′-dihydrospiro [cyclobutane-1,1′-pyrrolo[2,3-c]quinolin]-8′-yl)pyrazin-2-yl) methanesulfonamide] |
| < 7.00 | CN(C)CCOCc1ncc(-c2ccc3ncc4c(c3c2)C2(CCC2)C(=O)N4C)cc1NS(C)(=O)=O [Example 265, N-(2-((2-(Dimethylamino)ethoxy)methyl)-5-(3′-methyl-2′-oxo-2′,3′-dihydrospiro [cyclobutane-1,1′-pyrrolo[2,3-c]quinolin]-8′-yl)pyridin-3-yl)methanesulfonamide] |
| 7.00 to 9.00 | CNS(=O)(=O)c1cc(-c2ccc3ncc4c(c3c2)C2(CCC2)C(=O)N4C)cnc1OCCCN(C)C [Example 267, 2-(3-(Dimethylamino)propoxy)-N-methyl-5-(3′-methyl-2′-oxo-2′,3′-dihydrospiro[cyclobutane-1,1′-pyrrolo[2,3-c]quinolin]-8′-yl) pyridine-3-sulfonamide] |
| 7.00 to 9.00 | CN1C(=O)C2(CCC2)c2c1cnc1ccc(-c3cnc(CCCCN4CCCCC4)c(NS(C)(=O)=O)c3)cc21 [Example 269, N-(5-(3′-Methyl-2′-oxo-2′,3′-dihydrospiro[cyclobutane-1,1′-pyrrolo[2,3-c]quinolin]-8′-yl)-2-(4-(piperidin-1-yl)butyl)pyridin-3-yl)methanesulfonamide] |
| 7.00 to 9.00 | CN(C)c1ccc(-c2ncc(-c3ccc4ncc5c(c4c3)C3(CCC3)C(=O)N5C)cc2NS(C)(=O)=O)cn1 [Example 271, N-(6′-(Dimethylamino)-5-(3′-methyl-2′-oxo-2′,3′-dihydrospiro[cyclobutane-1,1′-pyrrolo[2,3-c]quinolin]-8′-yl)-[2,3′-bipyridin]-3-yl)methanesulfonamide] |
| 7.00 to 9.00 | CN(C)CCCOc1ncc(-c2ccc3ncc4c(c3c2)C2(CCC2)C(=O)N4C)cc1NS(=O)(=O)CS(C)(=O)=O [Example 274, N-(2-(3-(Dimethylamino)propoxy)-5-(3′-methyl-2′-oxo-2′,3′-dihydrospiro[cyclobutane-1,1′-pyrrolo[2,3-c]quinolin]-8′-yl)pyridin-3-yl)-1-(methylsulfonyl)methanesulfonamide] |
| 7.00 to 9.00 | CCc1ncc(S(=O)(=O)Nc2cc(-c3ccc4ncc5c(c4c3)C3(CCC3)C(=O)N5C)cnc2OCCNC)s1 [Example 275, 2-Ethyl-N-(5-(3′-methyl-2′-oxo-2′,3′-dihydrospiro[cyclobutane-1,1′-pyrrolo[2,3-c]quinolin]-8′-yl)-2-(2-(methylamino)ethoxy)pyridin-3-yl)thiazole-5-sulfonamide] |
| 7.00 to 9.00 | CN1CC=C(c2ncc(-c3ccc4ncc5c(c4c3)C3(CCC3)C(=O)N5C)cc2NS(C)(=O)=O)CC1 [Example 276, N-(1′-Methyl-5-(3′-methyl-2-oxo-2′,3′-dihydrospiro[cyclobutane-1,1′-pyrrolo[2,3-c]quinolin]-8′-yl)-1′,2′,3′,6′-tetrahydro-[2,4′-bipyridin]-3-yl)methanesulfonamide] |
| < 7.00 | CN1C(=O)C2(CCC2)c2c1cnc1ccc(-c3cnc(OCC(CO)N4CCCCC4)c(NS(C)(=O)=O)c3)cc21 (stereo not shown) [Example 284, N-(2-(3-Hydroxy-2-(piperidin-1-yl)propoxy)-5-(3′-methyl-2′-oxo-2′,3′-dihydrospiro[cyclobutane-1,1′-pyrrolo[2,3-c]quinolin]-8′-yl)pyridin-3-yl)methanesulfonamide] |
| < 7.00 | CN1C(=O)C2(CCC2)c2c1cnc1ccc(-c3cnc(OCC(CO)N(C)C)c(NS(C)(=O)=O)c3)cc21 (stereo not shown) [Example 296, N-(2-(2-(dimethylamino)-3-hydroxypropoxy)-5-(3′-methyl-2′-oxo-2′,3′-dihydrospiro[cyclobutane-1,1′-pyrrolo[2,3-c]quinolin]-8′-yl)pyridin-3-yl)methanesulfonamide] |
| < 7.00 | CN1C(=O)C2(CCC2)c2c1cnc1ccc(-c3cnc(OCCCN4CCCC(F)(F)C4)c(NS(C)(=O)=O)c3)cc21 [Example 298, N-(2-(3-(3,3-Difluoropiperidin-1-yl)propoxy)-5-(3′-methyl-2′-oxo-2′,3′-dihydrospiro[cyclobutane-1,1′-pyrrolo[2,3-c]quinolin]-8′-yl)pyridin-3-yl)methanesulfonamide] |
| 7.00 to 9.00 | CN1C(=O)C2(CCC2)c2c1cnc1ccc(-c3cnc(OCCCN4CCNCC4)c(NS(C)(=O)=O)c3)cc21 [Example 300, N-(5-(3′-Methyl-2′-oxo-2′,3′-dihydrospiro[cyclobutane-1,1′-pyrrole[2,3-c]quinolin]-8′-yl)-2-(3-(piperazin-1-yl)propoxy)pyridin-3-yl) methanesulfonamide] |
| 7.00 to 9.00 | CN1C(=O)C2(CCC2)c2c1cnc1ccc(-c3cnc(OCCCN4CCCCC4)c(NS(=O)(=O)CF)c3)cc21 [Example 301, 1-Fluoro-N-(5-(3′-methyl-2′-oxo-2′,3′-dihydrospiro[cyclobutane-1,1′-pyrrolo[2,3-c]quinolin]-8-yl)-2-(3-(piperidin-1-yl)propoxy)pyridin-3-yl) methanesulfonamide] |
| < 7.00 | CN1C(=O)C2(CCC2)c2c1cnc1ccc(-c3cnc(OCCCN4CC5CC(C4)O5)c(NS(C)(=O)=O)c3)cc21 [Example 303, N-(2-(3-(6-Oxa-3-azabicyclo[3.1.1]heptan-3-yl)propoxy)-5-(3′-methyl-2′-oxo-2′,3′-dihydrospiro[cyclobutane-1,1′-pyrrolo[2,3-c]quinolin]-8′-yl)pyridin-3-yl)methanesulfonamide] |
| < 7.00 | CN1C(=O)C2(CCC2)c2c1cnc1ccc(-c3cnc(OCCCN4CC(F)(F)C4)c(NS(C)(=O)=O)c3)cc21 [Example 307, N-(2-(3-(3,3-Difluoroazetidin-1-yl)propoxy)-5-(3′-methyl-2′-oxo-2′,3′-dihydrospiro[cyclobutane-1,1′-pyrrolo[2,3-c]quinolin]-8′-yl)pyridin-3-yl) methanesulfonamide formate] |
| 7.00 to 9.00 | CCN1C(=O)C2(CCC2)c2c1cnc1ccc(-c3cnc(OCCNC)c(NS(C)(=O)=O)c3)cc21 [Example 308, N-(5-(3′-Ethyl-2′-oxo-2′,3′-dihydrospiro[cyclobutane-1,1′-pyrrolo[2,3-c]quinolin]-8′-yl)-2-(2-(methylamino)ethoxy)pyridin-3-yl) methanesulfonamide hydrochloride] |
| < 7.00 | CN1C(=O)C2(CCC2)c2c1cnc1ccc(-c3cnc(OCC4CNC4)c(NS(C)(=O)=O)c3)cc21 [Example 310, N-(2-(Azetidin-3-ylmethoxy)-5-(3′-methyl-2′-oxo-2′,3′-dihydrospiro[cyclobutane-1,1′-pyrrole[2,3-c]quinolin]-8′-yl)pyridin-3-yl) methanesulfonamide hydrochloride] |
| 7.00 to 9.00 | CN1C(=O)C2(CCC2)c2c1cnc1cc(F)c(-c3cnc(N4CC(N(C)C)C4)c(NS(=O)(=O)N4CCOCC4)c3)cc21 [Example 312, N-(2-(3-(Dimethylamino)azetidin-1-yl)-5-(7′-fluoro-3′-methyl-2′-oxo-2′,3′-dihydrospiro[cyclobutane-1,1′-pyrrolo[2,3-c]quinolin]-8′-yl)pyridin-3-yl)morpholine-4-sulfonamide hydrochloride] |
| 7.00 to 9.00 | CCN(C)C1CN(c2ncc(-c3cc4c5c(cnc4cc3F)N(C)C(=O)C53CCC3)cc2NS(C)(=O)=O)C1 [Example 313, N-(2-(3-(Ethyl(methyl)amino)azetidin-1-yl)-5-(7′-fluoro-3′-methyl-2′-oxo-2′,3′-dihydrospiro[cyclobutane-1,1′-pyrrolo[2,3-c]quinolin]-8′-yl)pyridin-3-yl)methanesulfonamide hydrochloride] |
| 7.00 to 9.00 | COCCN(C)C1CN(c2ncc(-c3cc4c5c(cnc4cc3F)N(C)C(=O)C53CCC3)cc2NS(C)(=O)=O)C1 [Example 314, N-(5-(7′-Fluoro-3′-methyl-2′-oxo-2′,3′-dihydrospiro[cyclobutane-1,1′-pyrrolo[2,3-c]quinolin]-8′-yl)-2-(3((2-methoxyethyl)(methyl)amino)azetidin-1-yl)pyridin-3-yl)methanesulfonamide hydrochloride] |
| 7.00 to 9.00 | CN1C(=O)C2(CCC2)c2c1cnc1ccc(-c3cnc(N4CC(N5CCCCC5)C4)c(NS(C)(=O)=O)c3)cc21 [Example 321, N-(5-(3′-Methyl-2′-oxo-2′,3′-dihydrospiro[cyclobulane-1,1′-pyrrolo[2,3-c]quinolin]-8′-yl)-2-(3-(piperidin-1-yl)azetidin-1-yl)pyridin-3-yl)methanesulfonamide hydrochloride] |

| Compound | pIC50 |
| --- | --- |
| CC(CCOc1ncc(-c2ccc3ncc4c(c3c2)C2(CCC2)C(=O)N4C)cc1NS(C)(=O)=O)N(C)C (stereo not shown) [Example 292, N-(2-(3-(Dimethylamino)butoxy)-5-(3′-methyl-2′-oxo-2′,3′-dihydrospiro [cyclobutane-1,1′-pyrrolo[2,3-c]quinolin]-8′-yl)pyridin-3-yl)methanesulfonamide] | 7.00 to 9.00 |
